Test results published in ChEMBL document CHEMBL5375954, “Discovery and Evaluation of C6-Substituted Pyrazolopyrimidine-Based Bisphosphonate Inhibitors of the Human Geranylgeranyl Pyrophosphate Synthase and Evaluation of Their Antitumor Efficacy in Multiple Myeloma, Pancreatic Ductal Adenocarcinoma, and Colorectal Cancer” (J Med Chem, 2023).
Active and inactive are the calls of the source. The rule behind the calls is not given here.

Tests used:
[1] = Hepatotoxicity in male NSG mouse xenografted with human RPMI-8226 cells assessed as foci of necrosis at 3 mg/kg, ip administered 3 times a week for 26 days and measured 48 hrs post last dose by H and E staining based assay; format: toxicity, organism-based; details: in vivo, 672 h, time 28 day
[2] = Toxicity in NSG mouse xenografted with human RPMI-8226 cells assessed as reduction in body weight at 3 mg/kg, ip administered 3 times a week for 26 days and measured daily; format: organism-based; details: in vivo, time 26 day
[3] = Toxicity in NSG mouse xenografted with human MIA PaCa-2 cells assessed as morbidity at 3 mg/kg, ip administered 3 times a week for 26 days and measured daily; format: organism-based; details: in vivo, time 26 day
[4] = Hepatotoxicity in male NSG mouse xenografted with human RPMI-8226 cells assessed as inflammatory infiltrates at 3 mg/kg, ip administered 3 times a week for 26 days and measured 48 hrs post last dose by H and E staining based assay; format: toxicity, organism-based; details: in vivo, 672 h, time 28 day
RPMI-8226 [5] = assay: Antiproliferative activity against human RPMI-8226 cells harboring KRAS G12A mutant at 0.1 to 10000 nM incubated for 72 hrs by MTS assay; format: functional, cell-based; details: dose 0.1-10000 nM
[6] = Hepatotoxicity in male NSG mouse xenografted with human RPMI-8226 cells assessed as serum ALT level at 3 mg/kg, ip administered 3 times a week for 26 days and measured 48 hrs post last dose (reference value: 35 to 40 IU/L); format: toxicity, organism-based; details: in vivo, 672 h, time 28 day
[7] = AUC(0 to infinity) in Sprague-Dawley rat at 3 mg/kg, iv measured for 24 hrs by LC-MS/MS analysis; format: ADME, organism-based; parameters: dose 3 mg/kg, time 24 hrs, route iv; details: in vivo
[8] = Cytotoxicity against human IMR-90 cells assessed as inhibition of cell growth at 10 uM incubated for 72 hrs by MTS assay relative to control; format: toxicity, cell-based
[9] = Hepatotoxicity in male NSG mouse xenografted with human RPMI-8226 cells assessed as vasculitis or perivasculitis at 3 mg/kg, ip administered 3 times a week for 26 days and measured 48 hrs post last dose by H and E staining based assay; format: toxicity, organism-based; details: in vivo, 672 h, time 28 day
[10] = target: T1, Farnesyl pyrophosphate synthase (Homo sapiens) (UniProt P14324); assay: Inhibition of N-terminally His6-tagged recombinant human FPPS expressed in Escherichia coli BL21(DE3) cells using […] and [14C]IPP as substrate at 10 uM preincubated for 10 mins followed by substrate addition by scintillation counting analysis relative to control
T1 sequence (whole entry): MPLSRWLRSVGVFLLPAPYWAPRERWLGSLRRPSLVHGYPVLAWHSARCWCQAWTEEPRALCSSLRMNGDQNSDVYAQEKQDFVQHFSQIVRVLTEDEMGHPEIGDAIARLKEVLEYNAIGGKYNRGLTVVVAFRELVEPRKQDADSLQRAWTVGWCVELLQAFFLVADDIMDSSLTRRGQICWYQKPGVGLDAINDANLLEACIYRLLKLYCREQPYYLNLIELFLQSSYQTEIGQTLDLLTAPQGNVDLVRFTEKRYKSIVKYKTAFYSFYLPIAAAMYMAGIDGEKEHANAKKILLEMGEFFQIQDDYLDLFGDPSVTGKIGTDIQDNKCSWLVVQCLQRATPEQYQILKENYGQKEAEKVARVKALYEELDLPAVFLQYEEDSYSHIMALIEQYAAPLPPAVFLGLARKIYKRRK

[11] = Hepatotoxicity in male NSG mouse xenografted with human RPMI-8226 cells assessed as prominent nucleoli at 3 mg/kg, ip administered 3 times a week for 26 days and measured 48 hrs post last dose by H and E staining based assay; format: toxicity, organism-based; details: in vivo, 672 h, time 28 day
[12] = Metabolic stability in CD-1 mouse liver microsomes assessed as compound remaining incubated for 45 mins in absence of NADPH by LC-MS/MS analysis; format: ADME, Microsome; details: 0.75 h
[13] = target: T2, Ras-related protein Rap-1A (Homo sapiens) (UniProt P62834); assay: Inhibition of RAP-1A prenylation in human MIA PaCa-2 cells incubated for 48 hrs by Western blot analysis; format: cell-based; details: dose 10-1000 nM
T2 sequence (whole entry): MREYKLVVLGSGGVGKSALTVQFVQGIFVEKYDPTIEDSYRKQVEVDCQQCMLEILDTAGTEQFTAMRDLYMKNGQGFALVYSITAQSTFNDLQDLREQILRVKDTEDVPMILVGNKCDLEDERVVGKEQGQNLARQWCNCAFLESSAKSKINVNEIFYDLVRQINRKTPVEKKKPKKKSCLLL

[14] = Selectivity index, ratio of EC50 for human MIA PaCa-2 cells to EC50 for human RPMI-8226 cells; format: functional
[15] = Hepatotoxicity in female NSG mouse xenografted with human RPMI-8226 cells assessed as inflammatory infiltrates at 3 mg/kg, ip administered 3 times a week for 26 days and measured 48 hrs post last dose by H and E staining based assay; format: toxicity, organism-based; details: in vivo, 672 h, time 28 day
[16] = AUC(0 to t) in Sprague-Dawley rat at 3 mg/kg, iv measured for 24 hrs by LC-MS/MS analysis; format: ADME, organism-based; parameters: dose 3 mg/kg, time 24 hrs, route iv; details: in vivo
RPMI-8226 [17] = assay: cells; details: Homo sapiens, RPMI-8226, 72 h
JJN-3 = assay: Antiproliferative activity against human JJN-3 cells harboring wild type KRAS at 0.1 to 10000 nM incubated for 72 hrs by MTS assay; format: functional, cell-based; details: dose 0.1-10000 nM
MIA PaCa-2 [18] = assay: Antitumor activity against human MIA PaCa-2 cells xenografted in NSG mouse assessed as improvement in animal survival rate at 3 mg/kg, ip administered 3 times a week for 26 days and measured 60 days post last dose; format: functional, organism-based; details: time 86.0 day
MIA PaCa-2 [19] = assay: Antitumor activity against human MIA PaCa-2 cells xenografted in NSG mouse assessed as difference in tumor volume at 3 mg/kg, ip administered 3 times a week for 26 days and measured 48 hrs post last dose; format: functional, organism-based; details: time 28.0 day
[20] = target: T3, Geranylgeranyl pyrophosphate synthase (Homo sapiens, UniProt O95749); assay: Inhibition of N-terminal His6 tagged human GGPPS expressed in Escherichia coli BL21(DE3) cells in presence of FPP and [14C]IPP by scintillation counting analysis
T3 sequence (O95749 whole entry): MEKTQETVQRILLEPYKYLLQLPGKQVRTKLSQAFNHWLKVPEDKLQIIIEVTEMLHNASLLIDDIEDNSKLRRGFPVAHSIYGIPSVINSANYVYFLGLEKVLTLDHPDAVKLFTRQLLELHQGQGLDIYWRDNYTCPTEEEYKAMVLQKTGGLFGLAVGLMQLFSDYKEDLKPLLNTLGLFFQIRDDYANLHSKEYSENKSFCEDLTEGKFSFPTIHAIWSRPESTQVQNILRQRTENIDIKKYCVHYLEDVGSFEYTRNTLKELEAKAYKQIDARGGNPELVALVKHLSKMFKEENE

[21] = Hepatotoxicity in female NSG mouse xenografted with human RPMI-8226 cells assessed as serum ALT level at 3 mg/kg, ip administered 3 times a week for 26 days and measured 48 hrs post last dose (reference value: 30 to 98 IU/L); format: toxicity, organism-based; details: in vivo, 672 h, time 28 day
RPMI-8226 [22] = assay: Induction of ER stress in human RPMI-8226 cells at 1 uM; format: functional, cell-based

AUC(0-inf) [7]: 156 µg·h/mL | inhibition [10]: < 10% | Stability [12]: 121% | inhibition [13]: Dose-Dependent Effect | AUC(0-t) at 24 h [16]: 254 µg·h/mL | EC50 (RPMI-8226 [17]): 70 nM | IC50 [20]: 12 nM
Structure (SMILES): Cn1ncc2c(NC(P(=O)(O)O)P(=O)(O)O)nc(-c3cccc(C(=O)Nc4ccc(C(F)(F)F)cc4)c3)nc21
Activity [1]: Non-Toxic | Activity [2]: Non-Toxic | Activity [3]: Non-Toxic | Activity [4]: Non-Toxic | Activity (RPMI-8226 [5]): Active | Activity [6]: 42 IU/L | inhibition at 72 h, 10 µM [8]: ~20% | Activity [9]: Non-Toxic | Activity [11]: Non-Toxic | Ratio EC50 [14]: ~10 | Activity [15]: Non-Toxic | Activity (JJN-3): Active | Activity (MIA PaCa-2 [18]): Active | Activity (MIA PaCa-2 [19]): Active | Activity [21]: 59 IU/L | Activity (RPMI-8226 [22]): Active
